Holding throughout (format): biochemical
Assay [1] concerns the target T1, human CSNK1A1 (Homo sapiens (Human), UniProt P48729). The assay is described as follows: CSNK1A1 Assay 2 (ADP-Glo, 1 μM ATP). The note with it: substrate biotin-Ahx-KRRRAL-pS-VASLPGL, read-out: CSNK1A1 Assay 2 IC50 [mol/l] (median). The method in brief: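 Full-length human CSNK1A1 as an N-terminal GST fusion (baculovirus/insect cells) with biotinylated peptide substrate biotin-Ahx-KRRRAL-pS-VASLPGL and 1 μM ATP, in HEPES pH 7.5 buffer. Compounds were pre-incubated with enzyme (~0.0375 ng/μL) for 15 min at 22 °C. Generated ADP was read by ADP-Glo luminescence as the activity measure.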

The target in assay [2] is T1, human CSNK1A1. The assay is described as follows: CSNK1A1 Assay 1 (ADP-Glo, 1 μM ATP). The note with it: read-out: CSNK1A1 Assay 1 IC50 [mol/l] (median). On the procedure:
CSNK1A1-inhibitory activity of compounds of the present invention in presence of 1 μM adenosine-tri-phosphate (ATP) was quantified employing the CSNK1A1 assay as described in the following paragraphs. In essence, the enzyme activity is measured by quantification of the adenosine-di-phosphate (ADP), which is generated as a co-product of the enzyme reaction, via the “ADP-Glo™ Kinase Assay” kit from the company Promega. This detection system works as follows: In a first step the ATP not consumed in the kinase reaction is quantitatively converted to cAMP employing an adenylate cyclase (“ADP-Glo-reagent”), then the adenylate cyclase is stopped and the ADP generated in the kinase reaction converted to ATP which generates in a luciferase-based reaction a glow-luminescence signal (“Kinase Detection Reagent”). Recombinant fusion protein of N-terminal Glutathion-S-Transferase (GST) and full-length human CSNK1A1, expressed by baculovirus infected insect cells and purified via Glutathion affinity chromatography, was purchased from Life Technologies (product no. PV4174) and used as enzyme. As substrate for the kinase reaction the biotinylated peptide Btn-Ahx-[…] (C-terminus in amide form) was used which can be purchased e.g. from the company Biosyntan (Berlin-Buch, Germany).
For the assay 50 nl of a 100 fold concentrated solution of the test compound in DMSO was pipetted into a white 1536-well microtiter plate (Greiner Bio-One, Frickenhausen, Germany), 2 μL of a solution of CSNK1A1 in aqueous assay buffer [50 mM HEPES pH 7.5, 10% (v/v) glycerol, 10 mM MgCl2, 50 mM NaCl, 1 mM dithiothreitol, 0.01% (w/v) bovine serum albumin, 0.01% (v/v) Triton X-100] were added and the mixture was incubated for 15 min at 22° C. to allow pre-binding of the test compounds to the enzyme before the start of the kinase reaction. […] The concentration of CSNK1A1 was adjusted depending of the activity of the enzyme lot and was chosen appropriate to have the assay in the linear range, a typical concentration is 0.15 ng/μL. The reaction was stopped by the addition of 2.5 μL of “ADP-Glo-reagent” (1:1.5 fold diluted with water) and the resulting mixture was incubated at 22° C. for 1 h to convert the ATP not consumed in the kinase reaction completely […]. Subsequently 2.5 μL of the “kinase detection reagent” (1.2 fold more concentrated than recommended by the producer) were added, the resulting mixture was incubated at 22° C. for 1 h and then the luminescence measured with a suitable measurement instrument (e.g. Viewlux™ from Perkin-Elmer). The amount of emitted light was taken as a measure for the amount of ADP generated and thereby for the activity of the CSNK1A1.

Assay [3] has as its target wild-type Epidermal Growth Factor Receptor (EGFR) (Homo sapiens (Human), UniProt P00533). The assay is described as follows: WT-EGFR Kinase Assay (TR-FRET, 2 mM ATP).
Where [4] appears, read: EGFR Wildtyp- 2 mM ATP IC50 [mol/l] (median).
[5] abbreviates: read-out: EGFR Wildtyp- 2 mM ATP IC50 [mol/l] (median).
Setting [6] is: substrate Btn-Ahx-SGSEGDSESGEEEG

SMILES strings stand for the structures. Several values for one entry are separate records, joined by “and”; a condition that tells them apart may be missing. Equal values may be shown once. Read-outs that look alike come from different tables or passages of the source.

wild-type Epidermal Growth Factor Receptor (EGFR), sequence (P00533 669-1210): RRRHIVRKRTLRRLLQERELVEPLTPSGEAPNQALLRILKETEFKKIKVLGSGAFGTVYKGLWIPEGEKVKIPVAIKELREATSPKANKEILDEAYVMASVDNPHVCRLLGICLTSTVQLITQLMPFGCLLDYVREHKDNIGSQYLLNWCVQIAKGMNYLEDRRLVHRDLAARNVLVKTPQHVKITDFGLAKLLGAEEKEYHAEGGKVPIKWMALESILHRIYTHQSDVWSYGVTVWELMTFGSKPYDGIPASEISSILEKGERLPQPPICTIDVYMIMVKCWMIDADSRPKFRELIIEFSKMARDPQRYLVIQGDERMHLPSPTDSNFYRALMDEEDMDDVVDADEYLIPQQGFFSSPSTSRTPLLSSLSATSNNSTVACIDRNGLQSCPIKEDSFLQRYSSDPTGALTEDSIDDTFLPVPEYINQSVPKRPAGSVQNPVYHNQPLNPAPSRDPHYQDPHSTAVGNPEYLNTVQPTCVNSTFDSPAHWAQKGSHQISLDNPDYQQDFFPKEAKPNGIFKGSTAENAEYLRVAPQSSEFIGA
T1 sequence (P48729 whole entry, the tested form may be a part): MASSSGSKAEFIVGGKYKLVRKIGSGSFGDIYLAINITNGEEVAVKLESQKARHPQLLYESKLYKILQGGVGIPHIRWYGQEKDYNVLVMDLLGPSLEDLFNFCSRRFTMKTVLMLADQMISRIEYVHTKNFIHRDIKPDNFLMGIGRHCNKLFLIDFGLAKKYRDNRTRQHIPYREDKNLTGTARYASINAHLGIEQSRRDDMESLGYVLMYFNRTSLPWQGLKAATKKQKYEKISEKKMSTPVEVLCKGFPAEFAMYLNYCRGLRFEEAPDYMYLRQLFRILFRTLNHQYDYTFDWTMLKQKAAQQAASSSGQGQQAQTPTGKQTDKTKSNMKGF

As for `C[C@H](C(=O)Nc1cc(-c2[nH]c3c(c2Nc2ccccc2)C(=O)N(C)CC3)ccn1)c1ccc(F)cc1` (single isomer, unassigned) [Example 5], the IC50 was determined as 4.45 nM on human CSNK1A1 [1] and 3.62 nM at human CSNK1A1 [2] (substrate Btn-Ahx-[…]).
As to `C[C@@H](C(=O)Nc1cc(-c2[nH]c3c(c2Nc2ccccc2)C(=O)N(C)CC3)ccn1)c1ccc(F)cc1` (single isomer, unassigned) [Example 6], the IC50 at human CSNK1A1 [1] was 44 nM; in assay [3] (setting [4]), 16.1 µM and 15.6 µM and 18.2 µM and > 20 µM (2×) and 15.9 µM and 17.1 µM; on human CSNK1A1 [2] (substrate Btn-Ahx-[…]), 33.3 nM.
Consider `CN1CCc2[nH]c(-c3ccnc(NC(=O)Cc4ccc(F)cc4)c3)c(Nc3ccccc3)c2C1=O` [Example 1, N-[4-(3-anilino-5-methyl-4-oxo-4,5,6,7-tetrahydro-1H-pyrrolo[3,2-c]pyridin-2-yl)pyridin-2-yl]-2-(4-fluorophenyl)acetamide], for which the results for the IC50 (on human CSNK1A1 [1]; in assay [3] (setting [5]); on human CSNK1A1 [2] (setting [6])) were 1.97 nM, 1200 nM and 2.54 nM, respectively.
For `CC(C(=O)Nc1cc(-c2[nH]c3c(c2Nc2ccccc2)C(=O)N(C)CC3)ccn1)c1ccc(F)cc1` (stereo not drawn) [Example 4, N-[4-(3-anilino-5-methyl-4-oxo-4,5,6,7-tetrahydro-1H-pyrrolo[3,2-c]pyridin-2-yl)pyridin-2-yl]-2-(4-fluorophenyl)propanamide], the IC50 at human CSNK1A1 [1] was 5.49 nM; in assay [3] (setting [4]), 12600 nM and 11200 nM; in assay [3] (setting [5]), above 20000 nM; on human CSNK1A1 [2] (setting [6]), 11.2 nM.
